Where two headings read alike, the source gives them in different places.
Columns and labels:
[1] = Stability in human liver microsomes; assay type: in vitro ADME
Procedure: (§1) The stability of the compounds of the present invention in human and rat liver microsomes can be tested by the following two methods:
(§2) Human or rat liver microsomes were incubated in polypropylene tubes in duplicate wells. A typical incubation mixture included human or rat liver microsomes (0.5 mg protein/mL), target compound (5 µM), and a total volume of 200 µL of NADPH (1.0 mM) potassium phosphate buffer (PBS, 100 mM, pH 7.4), the compound was dissolved in DMSO and diluted with PBS, the final concentration of the DMSO solution was 0.05%. Human or rat liver microsomes were incubated at 37° C. in an air-connected water bath. After pre-incubation for 3 minutes, […] was added to start the reaction. The same volume of ice-cold acetonitrile was added to terminate the reaction at different time points (0, 5, 10, 15, 30 and 60 min). Samples were stored at -80° C. until LC/MS/MS analysis.
(§3) The linear concentration range of each target compound was determined, and then, the concentration of the target compounds in the human or rat liver microsomes incubation mixture was determined by LC/MS/MS method.
(§4) Parallel incubations were performed using denatured microsomes as a negative control and dextromethorphan (70 µM) as a positive control. Negative control was incubated at 37° C., the reaction was terminated at different time points (0, 15 and 60 minutes); positive control was incubated at 37° C., the reaction was terminated at different time points (0, 5, 10, 15, 30 and 60 minutes). Positive and negative control samples were used in each assay to ensure the integrity of the microsomal incubation system.
(§5) In addition, the stability data of the compounds of the present invention in human or rat liver microsomes can also be obtained from the following tests:
(§6) Human or rat liver microsomes were incubated in polypropylene tubes in duplicate wells. A typical incubation mixture included human or rat liver microsomes (final concentration: 0.5 mg protein/mL), target compound (final concentration: 1.5 µM) and a total volume of 30 µL of K-buffer solution (containing 1.0 mM EDTA, 100 mM, pH 7.4). Compounds were dissolved in DMSO and diluted with K-buffer solution, the final concentration of DMSO was 0.2%. […]
(§7) For each reaction, in vivo intrinsic hepatic clearance CLint is extrapolated by plotting the compound concentration (expressed as a percentage) in human or rat liver microsomal incubations as a percentage relative to time zero (ref.: Naritomi Y, Terashita S, Kimura S, Suzuki A, Kagayama A, Sugiyama Y. Prediction of human hepatic clearance from in vivo animal experiments and in vitro metabolic studies with liver microsomes from animals and humans. Drug Metabolism and Disposition 2001, 29: 1316-1324.).

[2] = Pharmacokinetic evaluation in rats after intravenous injection and oral administration; assay type: in vivo; conditions: rat, plasma; for AUC(0-t): read-out: PK AUClast; for Cmax: read-out: PK Cmax; for half-life: read-out: PK T½ (converted)
Procedure: The analytical LC/MS/MS system includes an Agilent 1200 series vacuum degasser, a binary syringe pump, an orifice plate autosampler, a column oven, and an Agilent G6430 triple quadrupole mass spectrometer with an electrospray ionization (ESI) source.
Agilent XDB-C18, 2.1 × 30 mm, 3.5 µM column was used to analysis, 5 µL sample was injected. Analytical conditions: Mobile phases were 0.1% formic acid in water (A) and 0.1% formic acid in methanol (B). The flow rate was 0.4 mL/min.
In addition, Agilent 6330 series LC/MS/MS spectrometer was used for analysis, equipped with G1312A binary syringe pump, G1367A automatic sampler and G1314C UV detector; LC/MS/MS spectrometer used ESI radiation source. Optimum analysis was achieved using standards with appropriate cation model processing and MRM conversion for each analyte. A Capcell MP-C18 column, 100 × 4.6 mm I.D., 5 µM (Phenomenex, Torrance, California, USA) was used during the analysis. Mobile phase was 5 mM ammonium acetate, 0.1% methanol in water (A): 5 mM ammonium acetate, 0.1% methanol in acetonitrile (B) (70/30, v/v); flow rate was 0.6 mL/min; column temperature was maintained at room temperature; 20 µL of sample was injected.
The present invention evaluates the pharmacokinetic studies of the compounds of the present invention in mice, rats, dogs or monkeys. The compounds of the present invention were administered in the form of aqueous solution or 2% HPMC + 1% Tween-80 aqueous solution, 5% DMSO + 5% saline solution, 4% MC or capsule. For intravenous administration, animals were dosed at about 0.5, 0.6, 1 or 2 mg/kg. The oral doses (p.o.) were 5 or 10 mg/kg for rats and mice, and 10 mg/kg for dogs and monkeys. Bloods (0.3 mL) were taken at time points 0.25, 0.5, 1.0, 2.0, 3.0, 4.0, 6.0, 8.0, 12 and 24 h and centrifuged at 3,000 or 4,000 rpm for 10 min. Plasma solutions were collected and stored at -20° C. or -70° C. until LC/MS/MS analysis as described above. […] Table 2 is the experimental results of the pharmacokinetic characteristics of the compounds provided in the examples of the present invention in rats.

[3] = Stability in rat liver microsomes; assay type: in vitro ADME
Procedure: as §1, §2, §3, §4, §5, §6, §7

P-STAT3 = experiment: Effect of TYK2 inhibitor on P-STAT3 expression in PBMC induced by IFN-α (Table 3, P-STAT3 (h)); assay type: cell-based; conditions: Homo sapiens; P-STAT3 by ELISA, PBMC stimulated with IFN-α 5000 U/mL
Procedure: Whole blood was collected from healthy subjects, anticoagulated with heparin sodium, and PBMC (human peripheral blood mononuclear cells) were extracted. PBMC were seeded in 96-well culture plates at a density of 1*106/well. The initial concentration of the positive drug BMS986165 was 1000 nM, after diluting 10 times, the positive drug BMS986165 was diluted 8 concentrations by 3 times; the concentration of the other tested compounds was 333 nM. Positive wells and negative wells were added with the same volume of DMSO as the compound, and the final concentration of DMSO was 0.5%. After the compound was added, the cells were incubated at 37° C. for 1 h, and then stimulated by the addition of IFN-α at a final concentration of 5000 U/mL. An equal volume of medium was added to the negative wells and incubated for 15 min. The cells were centrifuged to remove the supernatant, and lysed, and the P-STAT3 was measured according to the instructions of the ELISA kit, the absorbance was read at 450 nm, and the IC50 value or inhibition rate was calculated.
CTLL-2, P-STAT3 and TF-1 cells were seeded in a 96-well culture plate at a density of 20,000/well with 90 µL per well, and the blank well was an equal amount of complete medium. […]

TF-1 cells = experiment: Inhibitory effect on TF-1 cell proliferation; assay type: cell-based; conditions: Homo sapiens, alamar blue, read-out: IC50 (nM) TF-1 (h)
Procedure: TF-1 cells were seeded in a 96-well culture plate at a density of 20,000/well with 80 µL per well, the blank well was an equal amount of complete medium, and 10 µL of the compound dilution solution was added to the 96-well plate B1-11, C1-11, E1-11, F1-11, positive and negative wells were added with 5% DMSO medium equal to the volume of the compound, and the final concentration of DMSO was 0.5%. After 30 min, GM-CSF with a final concentration of 2 ng/mL was added to rows B, C, and D (positive wells), and the remaining wells (rows E, F, and G) were added with the same volume of medium as cytokines (negative wells). After incubation for 44 h at 37° C. in 5% CO2, alamar blue was added, the plate was incubated for 4 h, the fluorescence intensity of each well under the conditions of […], 580 nm wavelength was measured, and the IC50 value was calculated.
CTLL-2, P-STAT3 and TF-1 cells were seeded in a 96-well culture plate at a density of 20,000/well with 90 µL per well, and the blank well was an equal amount of complete medium. 10 ul of different compound dilutions were added to each plate row BC, DE, and FG, and 5% DMSO medium with equal volume of the compound was added to positive wells and negative wells, and the final concentration of DMSO was 0.5%. […]

JAK1/TYK2 = experiment: Cell level activity test of JAK1/TYK2 (IFN-α induced STAT3 phosphorylation in PBMC); assay type: cell-based; conditions: Homo sapiens; P-STAT3 by ELISA in PBMC, compound 1 h, IFN-α 5000 U/mL 15 min; read-out: IC50 nM (JAK 1 /TYK2)
Procedure: IFN-α can induce the phosphorylation of STAT3 downstream of JAK1/TYK2 in PBMC, and by measuring the level of STAT3 phosphorylation, the activity of the compound on JAK1/TYK2 at the cell level can be reflected.
Whole blood was collected from healthy subjects, anticoagulated with heparin sodium, and PBMC (human peripheral blood mononuclear cells) were extracted. PBMC were seeded in a 96-well culture plates at a density of 1*106/well. Positive wells and negative wells were added with the same volume of DMSO as the compound, and the final concentration of DMSO was 0.5%. The compounds were incubated with the cells at 37° C. for 1 h, and then stimulated by adding IFN-α at a final concentration of 5000 U/mL, an equal volume of medium was added to the negative wells, and incubated for 15 min. The cells were centrifuged to remove the supernatant, then lysed, and P-STAT3 was measured according to the instructions of the ELISA kit, the absorbance was read at 450 nm, and the IC50 value or inhibition rate was calculated.

CTLL-2 cells = experiment: Inhibitory effect on CTLL-2 cell proliferation; assay type: cell-based; conditions: alamar blue, read-out: IC50 (nM) CTLL-2 (h)
Procedure: CTLL-2, P-STAT3 and TF-1 cells were seeded in a 96-well culture plate at a density of 20,000/well with 90 µL per well, and the blank well was an equal amount of complete medium. 10 ul of different compound dilutions were added to each plate row BC, DE, and FG, and 5% DMSO medium with equal volume of the compound was added to positive wells and negative wells, and the final concentration of DMSO was 0.5%. After incubating in a 37° C. incubator for 20 h, alamar blue was added, the plate was incubated for 4 h, the fluorescence intensity of each well under the conditions of […], 580 nm wavelength was measured, and the IC50 value was calculated.

[4] = pH 7.4, in vivo intrinsic hepatic clearance extrapolated

half-life ([1]; human, pH 7.4, read-out: Human T½) | CLint scaled [1, 4] | AUC(0-t) ([2]; IV 1 mg/kg) | Cmax ([2]; IV 1 mg/kg) | half-life ([2]; IV 1 mg/kg) | AUC(0-t) ([2]; PO 5 mg/kg) | Cmax ([2]; PO 5 mg/kg) | half-life ([2]; PO 5 mg/kg) | bioavailability ([2]; oral bioavailability, PO 5 mg/kg) | CLint scaled [3, 4] | half-life ([3]; rat, pH 7.4, read-out: Rat T½) | IC50 (P-STAT3) | IC50 (JAK1/TYK2) | SMILES | IC50 (TF-1 cells) | IC50 (CTLL-2 cells)
1.92 h | 15.1 mL/min/kg | 1650 ng·h/mL | 1170 ng/mL | 1.24 h | 8810 ng·h/mL | 2650 ng/mL | 3.11 h | 107% | 16.2 mL/min/kg | 2.56 h |  |  | COc1cc(-c2cn(C)c3cnc(NC(C)=O)cc23)nc2c1COC21CCOC1 (stereo not drawn) [Example 1, N-(3-(4′-methoxy-4,5-dihydro-2H,5′H-spiro[furan-3,7′-furo[3,4-b]pyridin]-2′ -yl)-1-methyl-1H-pyrrolo[2,3-c]pyridin-5-yl)acetamide] |  | 
 |  |  |  |  |  |  |  |  |  |  | 21.4 nM | 21.4 nM | CC(=O)Nc1cc2c(-c3ccc4c(n3)C3(CCOC3)OCC4)cn(C)c2cn1 (stereo not drawn) [Example 3, N-(1-Methyl-3-(4,5,5′,6′-Tetrahydro-2H-Spiro[Furan-3,8′-Pyrano[3,4-b]Pyridine]-2′-yl)-1H-Pyrrolo[2,3-c]Pyridin-5-yl)Acetamide] | 5290 nM | > 10000 nM

— patent US20230339977A1, “SUBSTITUTED HETEROARYL COMPOUND, AND COMPOSITION AND APPLICATION THEREOF” (SUNSHINE LAKE PHARMA CO., LTD., priority 2020, published 2023)
